# From patent US20240024273A1, “TOPICAL ADMINISTRATION OF 2-(DIETHYLAMINO)ETHYL 2-(4-ISOBUTYLPHENYL)PROPRIONATE FOR TREATMENT OF DISEASES” (TECHFIELDS PHARMA CO., LTD., priority 2020, published 2024)
# System: Mild to Moderate Osteoarthritis of the Knee
# Test: Phase 2 study: use of rescue medication (paracetamol)
# Format: in vivo, human
# Experimental: Subjects taking nonsteroidal anti-inflammatory drugs (NSAID) or other analgesics may enroll in the trial, but will discontinue any analgesic therapy for the duration of the study, starting at least 4 days (or 5 half lives, whichever is longer) prior to administration of the first dose of study medication (i.e., for an analgesic washout period before Day 1). Subjects will be allowed to take rescue medication (up to six 325 mg tablets [total of 1950 mg] of acetaminophen per day; provided by the Sponsor) for residual knee or other body pain starting 4 days (or 5 half lives, whichever is longer) prior to administration of the first dose of study medication except during the 24 hours prior to Baseline (Day 1), Week 2, Week 4, Week 8, Week 12/end of study (EOS), and Follow up assessments.
# Subjects will record the following information in a Daily Diary starting at Screening: the amount of knee pain in the target knee while walking during the preceding 24 hours (using a 100 mm visual analog scale [VAS]), the times and number of sprays for each administration of study medication, the times when the subject washes his/her knees and/or takes a shower, the number of tablets of rescue medication taken that day and the times taken, the reason for taking the rescue medication (e.g., knee pain, headache, low back pain), any other concomitant medications taken that day, and any AEs occurring that day.
# 3.9.3. Exploratory Efficacy Endpoints: • 1. Subject's global assessment of disease status of the target knee at 2, 4, 8, and 12 weeks of treatment; • 2. Investigator's global assessment of disease status of the target knee at 2, 4, 8, and 12 weeks of treatment; • 3. Subject's global assessment of response to therapy of the target knee at 2, 4, 8, and 12 weeks of treatment; • 4. Investigator's global assessment of response to therapy of the target knee at 2, 4, 8, and 12 weeks of treatment; • 5. Change from Baseline over time in VAS pain scores for the target knee from Daily Diary data; • 6. Amount of rescue medication (acetaminophen) consumed per day for target knee pain.
# Zeidler thought that paracetamol as rescue medication in nearly all OA trials may be a missing link to explain at least partially the large placebo response in OA trials. (Henning Zeidler, Paracetamol and the Placebo Effect in Osteoarthritis Trials: A Missing Link? Pain Research and Treatment, Volume 2011, 1-6.) From published data, the difference of the used amount of paracetamol is very small between the placebo and active drug cohorts. […] (T. J. Schnitzer, A. Kivitz, H. Frayssinet, and B. Duquesroix, “Efficacy and safety of naproxcinod in the treatment of patients with osteoarthritis of the knee: a 13-week prospective, randomized, multicenter study.” Osteoarthritis and Cartilage, vol. 18, no. 5, pp. 629-639, 2010.) In this trial, NSAIDs or any analgesic therapy was discontinued for the duration of the study, starting at least 14 days (or 5 half lives, whichever is longer) prior to administration of the first dose of study medication (ie, for an analgesic washout period before Day 1). Subjects were allowed to take rescue medication (up to six 325 mg tablets [total of 1950 mg] of acetaminophen per day; provided by the Sponsor) for residual knee or other body pain starting at least 4 days (or 5 half lives, whichever is longer) prior to administration of the first dose of study medication except during the 24 hours prior to Baseline (Day 1), Week 2, Week 4, Week 8, Week 12/end of study (EOS), and Follow-up assessments.
# [1] = for all pain and other conditions, 8.75 mg/knee (BID), Week 2
# [2] = for all pain and other conditions, 8.75 mg/knee (BID), Week 4
# [3] = for all pain and other conditions, 8.75 mg/knee (BID), Week 8
# [4] = for all pain and other conditions, 8.75 mg/knee (BID), Week 12
# [5] = for all pain and other conditions, 17.5 mg/knee (BID), Week 2
# [6] = for all pain and other conditions, 17.5 mg/knee (BID), Week 4
# [7] = for all pain and other conditions, 17.5 mg/knee (BID), Week 8
structure (smiles),measurement,setting,value
CCN(CC)CCOC(=O)C(C)c1ccc(CC(C)C)cc1 (centres unmarked) [2-(diethylamino)ethyl 2-(4-isobutylphenyl)propionate],patients using rescue medication at the end of the study,8.75 mg/knee,17.3%
same,"Rescue medication (paracetamol) only for knee pain, daily amount","8.75 mg/knee (BID), Day −2 to day −5 (baseline)",349 mg/day/patient
same,"Rescue medication (paracetamol) only for knee pain, daily amount","8.75 mg/knee (BID), Week 2",216 mg/day/patient
same,"Rescue medication (paracetamol), % of decrease from baseline","8.75 mg/knee (BID), Week 2",38.1%
same,"Rescue medication (paracetamol) only for knee pain, daily amount","8.75 mg/knee (BID), Week 4",167 mg/day/patient
same,"Rescue medication (paracetamol), % of decrease from baseline","8.75 mg/knee (BID), Week 4",52.1%
same,"Rescue medication (paracetamol) only for knee pain, daily amount","8.75 mg/knee (BID), Week 8",166 mg/day/patient
same,"Rescue medication (paracetamol), % of decrease from baseline","8.75 mg/knee (BID), Week 8",52.4%
same,"Rescue medication (paracetamol) only for knee pain, daily amount","8.75 mg/knee (BID), Week 12",159 mg/day/patient
same,"Rescue medication (paracetamol), % of decrease from baseline","8.75 mg/knee (BID), Week 12",54.4%
same,patients using rescue medication at the end of the study,17.5 mg/knee,6.5%
same,"Rescue medication (paracetamol) only for knee pain, daily amount","17.5 mg/knee (BID), Day −2 to day −5 (baseline)",243 mg/day/patient
same,"Rescue medication (paracetamol) only for knee pain, daily amount","17.5 mg/knee (BID), Week 2",86 mg/day/patient
same,"Rescue medication (paracetamol), % of decrease from baseline","17.5 mg/knee (BID), Week 2",64.6%
same,"Rescue medication (paracetamol) only for knee pain, daily amount","17.5 mg/knee (BID), Week 4",67 mg/day/patient
same,"Rescue medication (paracetamol), % of decrease from baseline","17.5 mg/knee (BID), Week 4",72.4%
same,"Rescue medication (paracetamol) only for knee pain, daily amount","17.5 mg/knee (BID), Week 8",54 mg/day/patient
same,"Rescue medication (paracetamol), % of decrease from baseline","17.5 mg/knee (BID), Week 8",77.8%
same,"Rescue medication (paracetamol) only for knee pain, daily amount","17.5 mg/knee (BID), Week 12",56 mg/day/patient
same,"Rescue medication (paracetamol), % of decrease from baseline","17.5 mg/knee (BID), Week 12",77.0%
same,use of rescue medication for all pain and other conditions,"17.5 mg/knee and 35 mg/knee groups, week 12",less than 100 mg/day/patient
same,patients using rescue medication at the end of the study,35 mg/knee,5.8%
same,"Rescue medication (paracetamol) only for knee pain, daily amount","35 mg/knee (BID), Day −2 to day −5 (baseline)",291 mg/day/patient
same,"Rescue medication (paracetamol) only for knee pain, daily amount","35 mg/knee (BID), Week 2",98 mg/day/patient
same,"Rescue medication (paracetamol), % of decrease from baseline","35 mg/knee (BID), Week 2",66.3%
same,"Rescue medication (paracetamol) only for knee pain, daily amount","35 mg/knee (BID), Week 4",88 mg/day/patient
same,"Rescue medication (paracetamol), % of decrease from baseline","35 mg/knee (BID), Week 4",69.8%
same,"Rescue medication (paracetamol) only for knee pain, daily amount","35 mg/knee (BID), Week 8",54 mg/day/patient
same,"Rescue medication (paracetamol), % of decrease from baseline","35 mg/knee (BID), Week 8",81.4%
same,"Rescue medication (paracetamol) only for knee pain, daily amount","35 mg/knee (BID), Week 12",44 mg/day/patient
same,"Rescue medication (paracetamol), % of decrease from baseline","35 mg/knee (BID), Week 12",84.9%
same,Daily amount of rescue medication (paracetamol),"for all pain and other conditions, 8.75 mg/knee (BID), Day −2 to day −5 (baseline)",364 mg/day/patient
same,Daily amount of rescue medication (paracetamol),[1],263 mg/day/patient
same,"Rescue medication (paracetamol), % of decrease from baseline",[1],27.7%
same,Daily amount of rescue medication (paracetamol),[2],208 mg/day/patient
same,"Rescue medication (paracetamol), % of decrease from baseline",[2],42.9%
same,Daily amount of rescue medication (paracetamol),[3],210 mg/day/patient
same,"Rescue medication (paracetamol), % of decrease from baseline",[3],42.3%
same,Daily amount of rescue medication (paracetamol),[4],209 mg/day/patient
same,"Rescue medication (paracetamol), % of decrease from baseline",[4],42.6%
same,Daily amount of rescue medication (paracetamol),"for all pain and other conditions, 17.5 mg/knee (BID), Day −2 to day −5 (baseline)",278 mg/day/patient
same,Daily amount of rescue medication (paracetamol),[5],136 mg/day/patient
same,"Rescue medication (paracetamol), % of decrease from baseline",[5],51.1%
same,Daily amount of rescue medication (paracetamol),[6],115 mg/day/patient
same,"Rescue medication (paracetamol), % of decrease from baseline",[6],58.6%
same,Daily amount of rescue medication (paracetamol),[7],87 mg/day/patient
same,"Rescue medication (paracetamol), % of decrease from baseline",[7],68.7%
